BindingDB's records for patent US20250313563 (The Broad Institute, 2025)
Where “and” joins values, the source holds several entries; their conditions need not be identical. Equal values may be shown once.

Key:
[1] = molecular target: Glycogen synthase kinase-3 beta (Homo sapiens, UniProt P49841); test: TR-FRET Assay
Outline: (§1)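 TR-FRET readout: streptavidin-d2 (40 nM in added detection mix) plus Tb-anti-pSer641 Ab (2 nM in mix). Steps were 30 min compound preincubation, kinase reaction, then EDTA stop.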

[2] = molecular target: Glycogen synthase kinase-3 alpha (Homo sapiens, UniProt P49840); test: TR-FRET Assay
Outline: as §1

Sequence of Glycogen synthase kinase-3 beta (P49841 whole entry): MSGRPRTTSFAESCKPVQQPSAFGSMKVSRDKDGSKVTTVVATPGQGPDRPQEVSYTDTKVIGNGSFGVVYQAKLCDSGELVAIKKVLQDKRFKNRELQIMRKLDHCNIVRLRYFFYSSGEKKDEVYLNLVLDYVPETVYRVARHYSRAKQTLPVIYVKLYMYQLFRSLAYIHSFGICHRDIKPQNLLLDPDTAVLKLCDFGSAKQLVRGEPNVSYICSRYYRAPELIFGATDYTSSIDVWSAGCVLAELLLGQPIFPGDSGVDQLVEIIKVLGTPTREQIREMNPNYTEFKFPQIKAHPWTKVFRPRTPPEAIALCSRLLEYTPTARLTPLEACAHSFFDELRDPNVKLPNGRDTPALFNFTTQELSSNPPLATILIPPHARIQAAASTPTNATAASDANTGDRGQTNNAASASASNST
Sequence of Glycogen synthase kinase-3 alpha (P49840 whole entry): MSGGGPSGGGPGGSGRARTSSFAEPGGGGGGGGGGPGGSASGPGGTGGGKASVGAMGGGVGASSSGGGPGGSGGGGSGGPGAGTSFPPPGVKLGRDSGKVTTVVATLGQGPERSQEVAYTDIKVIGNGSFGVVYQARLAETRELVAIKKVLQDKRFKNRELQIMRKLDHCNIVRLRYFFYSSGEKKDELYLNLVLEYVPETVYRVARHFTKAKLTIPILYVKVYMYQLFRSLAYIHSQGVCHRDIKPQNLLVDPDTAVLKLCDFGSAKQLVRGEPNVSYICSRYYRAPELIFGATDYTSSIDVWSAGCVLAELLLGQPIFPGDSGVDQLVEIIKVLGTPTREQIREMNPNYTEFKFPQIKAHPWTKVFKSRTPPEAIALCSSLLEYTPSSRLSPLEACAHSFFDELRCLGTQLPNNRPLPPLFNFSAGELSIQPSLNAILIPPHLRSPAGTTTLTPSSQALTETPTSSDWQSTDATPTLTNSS

Structure (SMILES)	IC50 [1]	IC50 [2]
CCC1(c2cccc(N(C)c3nccc(C)n3)c2)C2=CN=NC2NC2=C1C(=O)CC(C)(C)C2 (stereo unspecified) [US20250313563, Compound 942642]	< 100 nM and 1000 to 5000 nM	< 100 nM
Cn1ccc(S(=O)(=O)N2CC3(C2)C2=C(N=NC2)NC2=C3C(=O)CC(C)(C)C2)n1 [US20250313563, Compound 913260]	< 100 nM	< 100 nM
CC1(C)CC(=O)C2=C(C1)NC1=C(CN=N1)[C@]21CCOC(C)(C)C1 [US20250313563, Compound 924298]	1000 to 5000 nM	1000 to 5000 nM
CC1(C)CC(=O)C2=C(C1)NC1N=NC(CCC(F)(F)F)=C1[C@]21CCc2c(F)cccc21 (stereo partly specified) [US20250313563, Compound 874324]	100 to 1000 nM	100 to 1000 nM
CC[C@@]1(c2cccc(-c3cncn3C)c2)C2=C(CC(C)(C)CC2=O)NC2N=NC(C)=C21 (stereo partly specified) [US20250313563, Compound 913032]	< 100 nM	< 100 nM
CC[C@@]1(c2cccc(N3CCC[C@H]3C)c2)C2=CN=NC2NC2=C1C(=O)CC(C)(C)C2 (stereo partly specified) [US20250313563, Compound 918322]	> 5000 nM	> 5000 nM
CCC1(c2cccc(C(F)(F)F)c2)C2=CN=NC2NC2=C1C(=O)NC1(CCC1)C2 (stereo unspecified) [US20250313563, Compound 902202]	< 100 nM	< 100 nM
CCC1(c2cccc(OCCOC)c2)C2=CN=NC2NC2=C1C(=O)CC(C)(C)C2 (stereo unspecified) [US20250313563, Compound 801446]	> 1670 nM	100 to 1000 nM
CC1(C)CC(=O)C2=C(C1)NC1=C(CN=N1)C21CN(c2ccncn2)C1 [US20250313563, Compound 909209]	1000 to 5000 nM	1000 to 5000 nM
CC[C@]1(c2cccc(N(C)c3ccccn3)c2)C2=CN=NC2NC2=C1C(=O)CC(C)(C)C2 (stereo partly specified) [US20250313563, Compound 875608]	> 5000 nM	1000 to 5000 nM
O=C1C2=C(NC3N=NC=C3C23CCOCC3)C2CCC1C2 (stereo unspecified) [US20250313563, Compound 901464]	100 to 1000 nM	100 to 1000 nM
CC[C@@]1(c2cccc(-c3ccnc(C)c3)c2)C2=C(CC(C)(C)CC2=O)NC2N=NC(C(F)(F)F)=C21 (stereo partly specified) [US20250313563, Compound 917289]	1000 to 5000 nM	100 to 1000 nM
CCC1(c2ccccc2)C2=C(N=NC2)NC(C)=C1C(C)=O (stereo unspecified) [US20250313563, Compound 806940]	> 5000 nM	> 5000 nM
CCC1(c2cccc(S(=O)(=O)C3CCOCC3)c2)C2=CN=NC2NC2=C1C(=O)CC(C)(C)C2 (stereo unspecified) [US20250313563, Compound 927344]	< 100 nM	< 100 nM
CCC1(c2cccc(N(C)c3ccc(OC)nc3)c2)C2=CN=NC2NC2=C1C(=O)CC(C)(C)C2 (stereo unspecified) [US20250313563, Compound 913252]	100 to 1000 nM	100 to 1000 nM
CC1(C)CC(=O)C2=C(C1)NC1=C(CN=N1)C2(c1ccccc1)c1ccccc1 [US20250313563, Compound 789461]	> 5000 nM	1000 to 5000 nM
CCC1(c2cccc(COC)c2)C2=CN=NC2NC2=C1C(=O)CC(C)(C)C2 (stereo unspecified) [US20250313563, Compound 801323]	100 to 1000 nM	< 100 nM
CC1(C)CC(=O)C2=C(C1)NC1=C(CN=N1)C21CCC(n2cnnc2)CC1 (stereo unspecified) [US20250313563, Compound 943894]	100 to 1000 nM	< 100 nM
CC[C@]1(c2cccc(N(C)c3ccnc(F)c3)c2)C2=CN=NC2NC2=C1C(=O)CC(C)(C)C2 (stereo partly specified) [US20250313563, Compound 929444]	< 100 nM	< 100 nM
CC1(C)CC(=O)C2=C(C1)NC1=C(CN=N1)C21CCC2(CC1)COC2 [US20250313563, Compound 883977]	100 to 1000 nM	< 100 nM
CC1(C)CC(=O)C2=C(C1)NC1=C(CN=N1)[C@@]2(C)c1cccc(-c2ccccc2)c1 [US20250313563, Compound 801366]	> 5000 nM	> 5000 nM
CCC1(c2cccc(N(C)c3ccnc(C)c3)c2)C2=CN=NC2NC2=C1C(=O)CC(C)(C)C2 (stereo unspecified) [US20250313563, Compound 917149]	1000 to 5000 nM	100 to 1000 nM
C[C@@H]1CCC[C@]2(C1)C1=C(N=NC1)NC1=C2C(=O)CC(C)(C)C1 [US20250313563, Compound 893320]	< 100 nM	< 100 nM
CCC1(c2cccc(Br)c2)C2=CN=NC2NC2=C1C(=O)NC(C)C2 (stereo unspecified) [US20250313563, Compound 913225]	1000 to 5000 nM	100 to 1000 nM
CC1(C)CC(=O)C2=C(C1)NC1=C(CN=N1)C21CN(S(=O)(=O)C2CCCCC2)C1 [US20250313563, Compound 918275]	< 100 nM	< 100 nM
CC[C@@]1(c2cccc(N(C)c3cccc(C(F)(F)F)n3)c2)C2=CN=NC2NC2=C1C(=O)CC(C)(C)C2 (stereo partly specified) [US20250313563, Compound 927338]	100 to 1000 nM	< 100 nM

Next, values leading:

IC50 [1]	IC50 [2]	Structure (SMILES)
100 to 1000 nM	100 to 1000 nM	CC[C@@]1(c2cccc(S(C)(=O)=O)c2)C2=C(CC(C)(C)NC2=O)NC2N=NC(C(F)(F)F)=C21 (stereo partly specified) [US20250313563, Compound 948422]
< 100 nM	< 100 nM	CC1(C)CC(=O)C2=C(C1)NC1=C(CN=N1)C21CCN(S(=O)(=O)c2ccc3c(c2)OCCO3)CC1 [US20250313563, Compound 947900]
100 to 1000 nM	< 100 nM	CC1(C)CC(=O)C2=C(C1)NC1=C(CN=N1)C21COC2(CN(C(=O)C3CCCCCC3)C2)C1 (stereo unspecified) [US20250313563, Compound 947308]
1000 to 5000 nM	100 to 1000 nM	CCC1(c2cccc(-c3cc(C)nc(OC(F)F)c3)c2)C2=CN=NC2NC2=C1C(=O)CC(C)(C)C2 (stereo unspecified) [US20250313563, Compound 945463]
100 to 1000 nM	< 100 nM	CC[C@@]1(c2cccc(N(C)c3ccc(C(F)(F)F)nc3)c2)C2=CN=NC2NC2=C1C(=O)CC(C)(C)C2 (stereo partly specified) [US20250313563, Compound 945474]
> 5000 nM	> 5000 nM	CC[C@]1(c2cccc(-c3cc(C)nn3C)c2)C2=C(N=NC2)NC2=C1C(=O)C(C)(C)C2 [US20250313563, Compound 950827]
100 to 1000 nM	< 100 nM	CC1(C)CC(=O)C2=C(C1)NC1=C(CN=N1)C21CCN(S(=O)(=O)c2cc(Cl)ccc2Cl)CC1 [US20250313563, Compound 948122]
< 100 nM and 1000 to 5000 nM	< 100 nM and 100 to 1000 nM	CC[C@]1(c2cccc(-c3c(F)cncc3OC)c2)C2=C(N=NC2)NC2=C1C(=O)N(Cc1ccccc1)C2 [US20250313563, Compound 948549]
100 to 1000 nM	100 to 1000 nM	CCc1cc(-c2cccc([C@]3(CC)C4=CN=NC4NC4=C3C(=O)NC(C)(C)C4)c2)n(C)n1 (stereo partly specified) [US20250313563, Compound 952561]
< 100 nM	< 100 nM	CCC1(c2cccc(-c3cncn3C)c2)C2=CN=NC2NC2=C1C(=O)NC(C)(C)C2 (stereo unspecified) [US20250313563, Compound 945597]
< 100 nM	< 100 nM	CCC1(c2cccc(S(=O)(=O)CC3CC3)c2)C2=C(CC(C)(C)NC2=O)NC2N=NC(C)=C21 (stereo unspecified) [US20250313563, Compound 948178]
100 to 1000 nM	< 100 nM	CC[C@@]1(c2cccc(-c3ccnn3C)c2)C2=CN=NC2NC2=C1C(=O)NC1(CCS(=O)(=O)CC1)C2 (stereo partly specified) [US20250313563, Compound 949394]
100 to 1000 nM	< 100 nM	CC(C)C(=O)N1CC2(C1)CC1(CO2)C2=C(N=NC2)NC2=C1C(=O)CC(C)(C)C2 (stereo unspecified) [US20250313563, Compound 947304]
< 100 nM	< 100 nM	CC[C@@]1(c2cccc(-c3ccncc3C)c2)C2=CN=NC2NC2=C1C(=O)N[C@]1(CCCOC1)C2 (stereo partly specified) [US20250313563, Compound 947910]
< 100 nM	< 100 nM	CC1CCC(C(=O)N2CC3(C2)CC2(CO3)C3=C(N=NC3)NC3=C2C(=O)CC(C)(C)C3)C1 (stereo unspecified) [US20250313563, Compound 947268]
> 5000 nM	1000 to 5000 nM	CC[C@]1(c2ccccc2)C2=CN=NC2NC2=C1C(=O)C[C@]1(CCNC1=O)C2 (stereo partly specified) [US20250313563, Compound 950161]
> 5000 nM	> 5000 nM	CC[C@@]1(c2ccccc2)C2=CN=NC2NC2=C1C(=O)CC(C)(C)[C@@H]2F (stereo partly specified) [US20250313563, Compound 957199]
> 5000 nM	100 to 1000 nM	CC[C@@]1(c2cccc(-c3cc(C)ncc3F)c2)C2=CN=NC2NC2=C1C(=O)NC(C)(C)C2 (stereo partly specified) [US20250313563, Compound 947822]
< 100 nM	< 100 nM	CC1(C)CC(=O)C2=C(C1)NC1=C(CN=N1)C21COC2(CN(C(=O)C(C)(C)F)C2)C1 (stereo unspecified) [US20250313563, Compound 947276]
100 to 1000 nM	100 to 1000 nM	CC[C@@]1(c2cccc(-c3ccnc(C)c3)c2)C2=CN=NC2NC2=C1C(=O)CC(C)(C)[C@H]2F (stereo partly specified) [US20250313563, Compound 946104]
1000 to 5000 nM	100 to 1000 nM	CC[C@]1(c2cccc([C@H](C)c3ncccn3)c2)C2=CN=NC2NC2=C1C(=O)CC(C)(C)C2 (stereo partly specified) [US20250313563, Compound 948057]
1000 to 5000 nM	100 to 1000 nM	Cn1cc([C@H]2CC[C@]3(CC2)C2=C(N=NC2)NC2=C3C(=O)CC(C)(C)C2)cn1 [US20250313563, Compound 949322]
< 100 nM and 1000 to 5000 nM	< 100 nM	CC[C@@]1(c2cccc(-c3cn(C)nc3C)c2)C2=C(CC(C)(C)NC2=O)NC2N=NC(F)=C21 (stereo partly specified) [US20250313563, Compound 949185]
> 5000 nM	1000 to 5000 nM	CC[C@]1(c2cccc(-c3cnc4n3CCCC4)c2)C2=CN=NC2NC2=C1C(=O)CC(C)(C)C2 (stereo partly specified) [US20250313563, Compound 945618]
1000 to 5000 nM	100 to 1000 nM	CC[C@@]1(c2cccc(-c3cnn(C4CCCCC4)c3)c2)C2=CN=NC2NC2=C1C(=O)NC(C)(C)C2 (stereo partly specified) [US20250313563, Compound 951707]
100 to 1000 nM	< 100 nM	CC[C@@]1(c2cccc(-c3ccnc(C)c3)c2)C2=CN=NC2NC2=C1C(=O)N[C@@]1(CCOC1)C2 (stereo partly specified) [US20250313563, Compound 948149]
< 100 nM and 1000 to 5000 nM	< 100 nM and 100 to 1000 nM	CC1(C)CC(=O)C2=C(NC3=C(CN=N3)C23CCN(S(=O)(=O)c2cccc(C(F)(F)F)c2)CC3)[C@H]1F [US20250313563, Compound 951713]
